Source: patent publication US6066628A, “Non-iron metalloporphyrins and methods of use” (Emory University, priority 1998, dated 2000)
Like-named read-outs stand apart in the source and are kept apart here.

Experiments:
Y. enterocolitica [1] = assay: Disc diffusion sensitivity test; type: cell-based; details: disc ~50 μg MP
N. meningitidis = assay: Disc diffusion sensitivity test; type: cell-based; details: disc ~50 μg MP
E. coli = assay: Disc diffusion sensitivity test; type: cell-based, Escherichia coli
K. pneumoniae = assay: Disc diffusion sensitivity test; type: cell-based, Klebsiella pneumoniae
K. oxytoca = assay: Disc diffusion sensitivity test; type: cell-based, Klebsiella oxytoca
Ps. aeruginosa = assay: Disc diffusion sensitivity test; type: cell-based, Pseudomonas aeruginosa; details: disc ~50 μg MP; note: key: -: resistant; N: not determined
C. freundii = assay: Disc diffusion sensitivity test; type: cell-based, Citrobacter freundii
F. menigosepticum = assay: Disc diffusion sensitivity test; type: cell-based, Flavobacterium meningosepticum
B. subtilis = assay: Disc diffusion sensitivity test; type: cell-based, Bacillus subtilis; details: B. subtilis; disc ~50 μg MP
S. pyogenes A = assay: Disc diffusion sensitivity test; type: cell-based, Streptococcus pyogenes; details: disc ~50 μg MP
E. faecalis = assay: Disc diffusion sensitivity test; type: cell-based, Enterococcus faecalis; details: disc ~50 μg MP; note: key: -: resistant; N: not determined
M. smegmatis [2] = assay: Disc diffusion sensitivity test; type: cell-based, Mycobacterium smegmatis; details: disc ~50 μg MP
M. bovis = type: cell-based, Mycobacterium bovis; details: disc ~50 μg MP
M tuber. H37Pa = assay: Disc diffusion sensitivity test; type: cell-based, Mycobacterium tuberculosis; details: disc ~50 μg MP
S. crevisieae = assay: Disc diffusion sensitivity test; type: cell-based, Saccharomyces cerevisiae; details: S. cerevisiae; disc ~50 μg MP
Staphylococcus carnosus = assay: Disc diffusion sensitivity test; type: cell-based; details: 50 μg disc
S. aureus [3] = type: cell-based, Staphylococcus aureus
Neisseria meningitidis = assay: Minimal inhibitory concentration; type: cell-based
Bacillus subtilis = assay: Minimal inhibitory concentration; type: cell-based
[4] = test system: Streptococcus pyogenes JRS4; type: cell-based
[5] = test system: Mycobacterium bovis (BCG); type: cell-based
N. gonorrhoeae = assay: Minimal inhibitory concentration; type: cell-based, Neisseria gonorrhoeae; details: N. gonorrhoeae MS111; 20 to 24 hours (Table 5)
L. monocytogenes = assay: Minimal inhibitory concentration; type: cell-based; details: 20 to 24 hours (Table 5)
H. pylori ATCC 43504 = assay: Minimal inhibitory concentration; type: cell-based, Helicobacter pylori; details: H. pylori ATCC 43504 (Table 5)
Y. enterocolitica [6] = assay: Minimal bactericidal concentration; type: cell-based; details: reduces plating efficiency more than 99.9%; minimal exposure to light
S. aureus [7] = assay: Minimal bactericidal concentration; type: cell-based, Staphylococcus aureus; details: reduces plating efficiency more than 99.9%; minimal exposure to light
Procedure, shortened: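 Bacteria exposed to porphyrin derivatives above MIC as in the MIC assay, then plated on LB or LB+Tween 80 agar. MBC taken as the concentration reducing plating efficiency by more than 99.9%; light exposure kept minimal.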

M. smegmatis [8] = assay: Minimal bactericidal concentration; type: cell-based, Mycobacterium smegmatis; details: reduces plating efficiency more than 99.9%; minimal exposure to light
[9] = test system: Y. enterocolitica fur (H1852); type: cell-based; details: 1 μg/ml
M. smegmatis LR222 = assay: Growth kinetics with Ga-PPIX; type: cell-based, Mycobacterium smegmatis; details: 1 μg/ml
CaCO-2 cells = assay: Toxicity to mammalian cell monolayers; type: cell-based; details: 5 to 400 μg/ml; 24 to 48 hours
Method: (§1) To test for toxicity of MPs for mammalian cells, semiconfluent monolayers of four cell lines (MRC-5 primary human fibroblasts, Vero cells, MDCK cells and CaCO-2 cells) were incubated for 24 to 48 hours in the presence of 5, 25, 50, 250 and 400 μg/ml of Ga-PPIX dissolved in 0.02 M NaOH.

mice = assay: Preliminary toxicity testing on animals; type: in vivo
Method: as §1
Two mice were each injected intraperitoneally with 0.5 mg gallium protoporphyrin IX and observed for 7 days. […] The animals were sacrificed, and their internal organs were microscopically examined for signs of inflammation.

bacteria = type: cell-based
S. aureus [10] = test system: S. aureus
M. smegmatis [11] = test system: M. smegmatis

SMILES: C=CC1=C(C)C2=Cc3c(C=C)c(C)c4[n]3[Ga][n]3c(c(C)c(CCC(=O)O)c3=CC3=NC(=C4)C(C)=C3CCC(=O)O)=CC1=N2 [Ga-PPIX, Gallium (III) protoporphyrin IX chloride]
- diameter (mm) of the inhibition zone (Y. enterocolitica [1]): 28 mm
- diameter (mm) of the inhibition zone (N. meningitidis): 24 mm
- diameter (mm) of the inhibition zone (E. coli; E. coli, disc ~50 μg MP): 24 mm
- sensitive strains / strains tested (inhibition zones larger or equal 20 mm) (E. coli; Escherichia coli, 50 μg disc): 16/18
- diameter (mm) of the inhibition zone (K. pneumoniae; K. pneumoniae, disc ~50 μg MP): 22 mm
- sensitive strains / strains tested (inhibition zones larger or equal 20 mm) (K. pneumoniae; Klebsiella pneumoniae, 50 μg disc): 9/13
- diameter (mm) of the inhibition zone (K. oxytoca; K. oxytoca, disc ~50 μg MP): 21 mm
- sensitive strains / strains tested (inhibition zones larger or equal 20 mm) (K. oxytoca; Klebsiella oxytoca, 50 μg disc): 1/1
- diameter (mm) of the inhibition zone (Ps. aeruginosa): -
- diameter (mm) of the inhibition zone (C. freundii; C. freundii, disc ~50 μg MP): 22 mm
- sensitive strains / strains tested (inhibition zones larger or equal 20 mm) (C. freundii; Citrobacter freundii, 50 μg disc): 4/4
- diameter (mm) of the inhibition zone (F. menigosepticum; F. meningosepticum, disc ~50 μg MP): 22 mm
- sensitive strains / strains tested (inhibition zones larger or equal 20 mm) (F. menigosepticum; Flavobacterium meningosepticum, 50 μg disc): 1/1
- diameter (mm) of the inhibition zone (B. subtilis): 24 mm
- diameter (mm) of the inhibition zone (S. pyogenes A): -
- diameter (mm) of the inhibition zone (E. faecalis): -
- diameter (mm) of the inhibition zone (M. smegmatis [2]): 25 mm
- diameter (mm) of the inhibition zone (M. bovis): 35 mm
- diameter (mm) of the inhibition zone (M tuber. H37Pa): 36 mm
- diameter (mm) of the inhibition zone (S. crevisieae): -
- sensitive strains / strains tested (inhibition zones larger or equal 20 mm) (Staphylococcus carnosus): 1/1
- MIC in Muller-Hinton broth versus NB broth (S. aureus [3]; Muller-Hinton broth): did not differ significantly
- lower MIC in low iron media (S. aureus [3]; NBD with 0.1 mM dipyridyl): 2 fold
- MIC (S. aureus [3]; S. aureus 8325-4 (Table 4)): < 0.1 µg/mL
- MIC (S. aureus [3]; S. aureus 8325-4 (Table 6), in µg/mL): 1-2
- MIC (S. aureus [3]; S. aureus 8325-4, 20 to 24 hours (Table 5)): 1 to 2 µg/mL
- MIC (S. aureus [3]; S. aureus IR2419, dark (Table 10)): 1.6 µg/mL
- Minimal inhibitory concentration (MIC) (S. aureus [3]; methicillin-resistant S. aureus IR219, Nutrient broth (Table 2)): 1.6 µg/mL
- MIC (Neisseria meningitidis; N. meningitidis IR1072, 20 to 24 hours (Table 5)): 0.1 µg/mL
- MIC (Neisseria meningitidis; Neisseria meningitidis (Table 4)): < 0.1 µg/mL
- MIC (Bacillus subtilis; B. subtilis 3G18, 20 to 24 hours (Table 5)): 0.2 µg/mL
- MIC (Bacillus subtilis; Bacillus subtilis (Table 4)): < 0.1 µg/mL
- sensitivity [4]: resistant
- MIC ([5]; M. bovis (BCG) (Table 4)): 0.4 µg/mL
- MIC ([5]; M. bovis (BCG), two weeks (Table 5)): 0.4 µg/mL
- MIC (N. gonorrhoeae): 0.1 µg/mL
- MIC (L. monocytogenes): 0.2 µg/mL
- MIC (H. pylori ATCC 43504): 0.2 µg/mL
- Minimal bactericidal concentration (MBC) (Y. enterocolitica [6]): 6.4
- Minimal bactericidal concentration (MBC) (S. aureus [7]): > 13
- Minimal bactericidal concentration (MBC) (M. smegmatis [8]): 10
- growth in presence of Ga-PPIX [9]: completely prevented growth
- growth in presence of Ga-PPIX (M. smegmatis LR222): completely prevented growth
- detachment or rounding of cells (CaCO-2 cells): No detachment or rounding of cells was noticed
- behavior, eating habits, stress, general condition (mice; 0.5 mg intraperitoneally, 7 days): No change in behavior, eating habits and/or apparent stress or general condition were recorded
- inflammation of internal organs (mice; 0.5 mg intraperitoneally, 7 days, microscopy): No visible indications of inflammation were observed
- peracute or acute effect on health and behavior (mice; single intraperitoneal dose of 25 mg/kg): does not cause any peracute or acute effect on the health and behavior of mice
- antibacterial activity (bacteria): widest spectrum and the highest level of antibacterial activity
- spontaneous resistance (Gram-negative bacteria): gave rise to spontaneous resistant colonies
- spontaneous resistance (S. aureus [10]): did not produce spontaneous resistant mutants
- spontaneous resistance (M. smegmatis [11]): did not produce spontaneous resistant mutants
